Read-outs that look alike come from different tables or passages of the source.
Experiments:
MOLT3 = experiment: Growth inhibition of MOLT3 cells; format: cell-based
Description: (§1) In certain embodiments, securinine and norsecurinine analogues were administered to cancerous cells, such as acute myeloblastic leukemia cells (e.g., MOLT3 and OCI-AML3) and growth inhibition was analyzed. The analogues were effective in inhibiting myeloid growth in addition to promoting differentiation, and provide for reduced proliferation of acute myeloblastic leukemia cells (Table 2).

OCI-AML3 = experiment: Growth inhibition of OCI-AML3 cells; format: cell-based
Description: as §1

HL-60 cells [1] = experiment: Growth of HL-60 cells (IC50); format: cell-based, human; settings: value bracketed between tested concentrations, read-out: HL-60, IC50
CD14 and CD11b = settings: flow cytometry; cited from earlier work
HL-60 leukemic cells [2] = settings: HL-60 cells; from U.S. patent application Ser. No. 14/029,066; cited from earlier work
p44/p42 and p38 = settings: cited from earlier work
HL-60 leukemic cells [3] = experiment: Nitroblue Tetrazolium (NBT) reduction assay, differentiation of HL-60 leukemic cells; format: cell-based, human
Source text: In an aspect of the present disclosure, the compounds of the disclosure can be identified using a novel high-throughput screen that is biased to identify agents that have both a high potency and low toxicity in a myeloid disorder disease model, such as an animal or cell model. In some embodiments, the high-throughput screen measures the differentiation of HL-60 leukemic cells using a quantitative nitroblue tetrazolium (NBT) reduction assay. Screening HL-60 cells, human promyelocytic cells, is advantageous as they have been used extensively as a cell line to study myeloid differentiation. Though promyelocytic cells, HL-60 cells were derived from a patient with acute myeloblastic leukemia with maturation, FAB-M2.
This technique has also been widely exploited in HL-60 cells to analyze myelomonocytic differentiation.
The NBT screen works due to changes in the oxidoreductases during differentiation that lead to increases in rates of NBT reduction. NBT is reduced due to the production of superoxide that is catalyzed by an NADPH oxidase. […] NBT is reduced by superoxide from a soluble yellow compound to insoluble blue formazan granules whose formation can be monitored spectrophotometrically at 560 nm as the unreduced dye has minimal absorbance at this wavelength. A quantitative NBT reduction assay is ideal for this type of screen as it is simple, sensitive, quantitative, requires minimal cells, has been proven to have low well to well variability, and the amount of reduced NBT is proportional to the number of cells reducing the dye as well as the amount reduced by each cell.
To discover novel AML differentiation-inducing compounds a rapid high-throughput screen (HTS) was developed and optimized. The screen was designed to be biased to identify compounds that, unlike the majority of known differentiation-inducing agents, have both high potency and low toxicity. The screen measured the differentiation of HL-60 leukemic cells using a quantitative Nitroblue Tetrazolium (NBT) reduction assay, a test that is used extensively as a measure of functional myelomonocytic differentiation. The basis for the screen is unreduced NBT exists as a yellow soluble dye. Differentiated leukemic cells are capable of producing a respiratory burst that can reduce NBT into a blue insoluble compound that can be measured spectrophotometrically. This forward chemical genetics approach allowed the discovery of novel compounds that can act on targets not previously known to be “drugable.” As only live cells can reduce NBT, the screen is biased in identifying relatively nontoxic compounds.
To perform the screen, duplicate plates of HL-60 cells were cultured at a density of 5×10^4 cells/mL with 10 μM of each compound in 96 well plates for 5 days. To determine the relative capability for a compound to induce differentiation compared to known potent inducers, each plate destined for the NBT reduction assay included wells with 0.1% DMSO (vehicle control) and 1 μM ATRA. This approach eliminates any slight day to day variation in NBT reduction values and allows the discovery of compounds with similar or greater efficacy to ATRA. Differentiation was determined in the 96 well plates by incubating the cells with 1 mg/mL of NBT and 200 ng/mL of PMA as the stimulant for the respiratory burst for 35 minutes at 37° C. The reaction was then stopped with HCl and the formazan solubilized with DMSO. Finally, the reaction mixture was read spectrophotometrically at 560 nm in a plate reader.
The securinine and norsecurinine analogues were tested and evaluated on their abilities to affect differentiation and growth of HL-60 cells (Table 1).

[4] = tested on: 60 cancer cell lines, normal human lymphocytes, normal human bone marrow, mouse embryonic fibroblasts, and human umbilical vein endothelial cells; settings: 60 cancer cell lines and normal cells; cited from earlier work
HL-60 cells [5] = settings: cited from earlier work
[6] = tested on: a variety of leukemic cell lines; settings: cited from earlier work
c-myc = settings: cited from earlier work
leukemic cells = settings: cited from earlier work
CEBPβ = settings: cited from earlier work
p21 = settings: cited from earlier work
cell cycle (G0/G1) = settings: cited from earlier work
[7] = Homo sapiens, MOLT-3, MOLT3 cells, read-out: MOLT3 IC50
[8] = Homo sapiens, OCI-AML-3, OCI-AML3 cells, read-out: OCI-AML3 IC50
[9] = Homo sapiens, HL-60, HL-60 cells
[10] = Homo sapiens, HL-60, read-out: HL-60, Dif50
[11] = Homo sapiens, HL-60 cells, value bracketed between tested concentrations, read-out: HL-60, Dif50

Row | Compound | IC50 (MOLT3; [7]) | IC50 (OCI-AML3; [8]) | IC50 (HL-60 cells [1]; [9]) | other results
1 | O=C1C=C2C(C#Cc3ccsc3)=C[C@@H]3C[C@@]2(O1)[C@H]1CCCCN31 [Compound 31] | 60 nM | 75 nM | 156 to 310 nM | –
2 | CN(C)CC#CC1=C[C@@H]2C[C@@]3(OC(=O)C=C13)[C@H]1CCCCN21 [Compound 18] | 70 nM | 90 nM | 70 to 156 nM | –
3 | CCOC#CC1=C[C@@H]2C[C@@]3(OC(=O)C=C13)[C@H]1CCCCN21 [Compound 22] | 196 nM | 220 nM | 310 to 625 nM | –
4 | CC1=C(/C=C/C(C)=C/C=C/C(C)=C/C(=O)O)C(C)(C)CCC1 [ATRA, all-trans-retinoic acid] | – | – | – | induction of cell surface markers CD14 and CD11b (CD14 and CD11b): primarily induces CD11b; cells differentiated, NBT reduction assay (HL-60 leukemic cells [2]): ~95%
5 | CCCN(CC#CC1=C[C@@H]2C[C@@]3(OC(=O)C=C13)[C@H]1CCCCN21)CCC [Compound 39] | 80 nM | 70 nM | – | –
6 | C=C1CC[C@H](O)C/C1=C/C=C1\CCC[C@]2(C)[C@@H]([C@H](C)CCCC(C)C)CC[C@@H]12 [vitamin D3] | – | – | – | induction of cell surface markers CD14 and CD11b (CD14 and CD11b): induce CD14 and CD11b
7 | COc1cccc(C#CC2=C[C@@H]3C[C@@]4(OC(=O)C=C24)[C@H]2CCCCN32)c1 [Compound 47] | 150 nM | 215 nM | 310 to 625 nM | –
8 | O=C1C=C2C(C#Cc3ccccc3)=C[C@@H]3C[C@@]2(O1)[C@H]1CCCCN31 [Compound 17] | 70 nM | 80 nM | 70 to 156 nM | –
9 | O=C1C=C2C=C[C@@H]3C[C@@]2(O1)[C@H]1CCCCN31 [Securinine, (6S,11aR,11bS)-9,10,11,11a-tetrahydro-8H-6,11b-methanofuro[2,3-c]pyrido[1,2-a]azepin-2(6H)-one] | – | – | – | phosphorylation of p44/p42 and p38 (p44/p42 and p38): induces rapid phosphorylation of p44/p42 and p38; EC50 (HL-60 leukemic cells [3]; [10]): 10000 to 15000 nM; toxicity [4]: low toxicity; induction of cell surface markers CD14 and CD11b (CD14 and CD11b): induce CD14 and CD11b; proliferation of HL-60 cells (HL-60 cells [5]): potently inhibits the proliferation of HL-60 cells; differentiation of leukemic cell lines [6]: can differentiate a variety of leukemic cell lines; c-myc expression (c-myc): potently downregulated; morphologic changes (leukemic cells): clear morphologic changes suggestive of monocytic differentiation; CEBPβ expression (CEBPβ): time-dependent upregulation; p21 protein (p21): upregulated; cell cycle distribution (cell cycle (G0/G1)): accumulation of cells in G0/G1; cells differentiated, NBT reduction assay (HL-60 leukemic cells [2]): ~95%
10 | O=C1C=C2C(C#Cc3ccsc3)=C[C@@H]3C[C@@]2(O1)[C@H]1CCCCN31 [INVS-MG-136-III] | – | – | – | IC50 (MOLT3; MOLT3 cells, read-out: MOLT3 IC50): 100 nM; IC50 (OCI-AML3; OCI-AML3 cells, read-out: OCI-AML3 IC50): 115 nM; IC50 (HL-60 cells [1]; HL-60 cells): < 70 nM
11 | CN(C)c1ccc(C#CC2=C[C@@H]3C[C@@]4(OC(=O)C=C24)[C@H]2CCCCN32)cc1 [Compound 36] | 115 nM | 105 nM | 156 to 310 nM | –
12 | COc1ccc(C#CC2=C[C@@H]3C[C@@]4(OC(=O)C=C24)[C@H]2CCCCN32)cc1 [Compound 29] | 60 nM | 80 nM | 39 to 78 nM | –
13 | COc1ccc2cc(C#CC3=C[C@@H]4C[C@@]5(OC(=O)C=C35)[C@H]3CCCCN43)ccc2c1 [Compound 40] | 90 nM | 105 nM | – | –
14 | C=C(C)CC#CC1=C[C@@H]2C[C@@]3(OC(=O)C=C13)[C@H]1CCCCN21 [Compound 28] | 165 nM | 200 nM | 156 to 310 nM | –
15 | O=C1C=C2C(C#Cc3ccc(OC(F)(F)F)cc3)=C[C@@H]3C[C@@]2(O1)[C@H]1CCCCN31 [Compound 48] | > 300 nM | > 300 nM | 310 to 625 nM | –
16 | CCN(CC)CC#CC1=C[C@@H]2C[C@@]3(OC(=O)C=C13)[C@H]1CCCCN21 [Compound 35] | 130 nM | 110 nM | – | –
17 | COc1ccc(CN[C@@H]2CC3=CC(=O)O[C@@]34C[C@@H]2N2CCCC[C@@H]24)cc1 [INVS-MG-86C] | – | – | – | EC50 (HL-60 leukemic cells [3]; HL-60 cells, value bracketed between tested concentrations, read-out: HL-60, Dif50): > 30000 nM
18 | NCCSC1CC2=CC(=O)O[C@@]23C[C@@H]1N1CCCC[C@@H]13 (stereo partly shown) [Compound 77] | – | – | – | EC50 (HL-60 leukemic cells [3]; [11]): 10000 to 15000 nM
19 | N#Cc1ccc(C#CC2=C[C@@H]3C[C@@]4(OC(=O)C=C24)[C@H]2CCCCN32)cc1 [Compound 46] | 145 nM | 205 nM | 310 to 625 nM | –
20 | Nc1ccc(C#CC2=C[C@@H]3C[C@@]4(OC(=O)C=C24)[C@H]2CCCCN32)cc1 [Compound 53] | – | – | – | EC50 (HL-60 leukemic cells [3]; [11]): 156 to 310 nM
21 | CSC1CC2=CC(=O)O[C@@]23C[C@@H]1N1CCCC[C@@H]13 (stereo partly shown) [Compound 96] | – | – | – | EC50 (HL-60 leukemic cells [3]; [10]): 10000 to 15000 nM
22 | C[N+]12CCCC[C@@H]1[C@]13C[C@H]2C=CC1=CC(=O)O3 (stereo partly shown) [Compound 8] | – | – | – | EC50 (HL-60 leukemic cells [3]; [11]): > 30000 nM
23 | O=C1C=C2C(C#Cc3cc4ccccc4c4ccccc34)=C[C@@H]3C[C@@]2(O1)[C@H]1CCCCN31 [Compound 41] | – | – | – | IC50 (MOLT3; Homo sapiens, MOLT-3, read-out: MOLT3 IC50 (nM)): 150 nM; IC50 (OCI-AML3; Homo sapiens, OCI-AML-3, read-out: OCI-AML3 IC50 (nM)): 180 nM
24 | N#CCCCC#CC1=C[C@@H]2C[C@@]3(OC(=O)C=C13)[C@H]1CCCCN21 [Compound 26] | 160 nM | 195 nM | – | –
25 | CC(C)NCCSC1CC2=CC(=O)O[C@@]23C[C@@H]1N1CCCC[C@@H]13 (stereo partly shown) [Compound 100] | – | – | – | EC50 (HL-60 leukemic cells [3]; [11]): 15000 to 20000 nM
